From US9657110B2, “Polypeptides and use thereof” (ASTON UNIVERSITY, priority 2011, dated 2017)

B1: HS1: TG2 mutant K600A, R601A, K602A (protein, UniProt P21980 2-687, looked up, variant K600A R601A K602A)
Protein-glutamine …: AEELVLERCDLELETNGRDHHTADLCREKLVVRRGQPFWLTLHFEGRNYEASVDSLTFSVVTGPAPSQEAGTKARFPLRDAVEEGDWTATVVDQQDCTLSLQLTTPANAPIGLYRLSLEASTGYQGSSFVLGHFILLFNAWCPADAVYLDSEEERQEYVLTQQGFIYQGSAKFIKNIPWNFGQFEDGILDICLILLDVNPKFLKNAGRDCSRRSSPVYVGRVVSGMVNCNDDQGVLLGRWDNNYGDGVSPMSWIGSVDILRRWKNHGCQRVKYGQCWVFAAVACTVLRCLGIPTRVVTNYNSAHDQNSNLLIEYFRNEFGEIQGDKSEMIWNFHCWVESWMTRPDLQPGYEGWQALDPTPQEKSEGTYCCGPVPVRAIKEGDLSTKYDAPFVFAEVNADVVDWIQQDDGSVHKSINRSLIVGLKISTKSVGRDEREDITHTYKYPEGSSEEREAFTRANHLNKLAEKEETGMAMRIRVGQSMNMGSDFDVFAHITNNTAEEYVCRLLLCARTVSYNGILGPECGTKYLLNLNLEPFSEKSVPLCILYEKYRDCLTESNLIKVRALLVEPVINSYLLAERDLYLENPEIKIRILGEPKQAAALVAEVSLQNPLPVALEGCTFTVEGAGLTEEQKTVEIPDPVEAGEEVKVRMDLLPLHMGLHKLVVNFESDKLKAVKGFRNVIIGPA

Legend:
[1] = test system: HOB cells; experiment: Cell adhesion assay (attachment and spreading) on FN or TG-FN matrix with RGD or RAD peptide; format: cell-based, human; conditions: for effect on attachment and spreading of HOB cells on TG-FN in the presence of the RGD peptide: TG-FN matrix, peptide 100-300 μg/ml
Protocol: The cell adhesion assay was carried out as previously described (Wang et al., 2010). Briefly, 96-well plastic tissue culture plates were coated with 5 μg/ml FN in 50 mM Tris-HCl, pH 7.4 at 4° C. overnight, after washing three times with 100 μl of 50 mM Tris-HCl, pH7.4, gplTG (20 μg/ml) in 2 mM EDTA in PBS, pH 7.4 was added to the wells for 1 h at 37° C. and the wells were washed three times with 50 mM Tris-HCl, pH7.4. Serum-starved (for 16 h) HOB cells with different treatments as introduced below in serum-free medium were detached by trypsinization and then treated with trypsin inhibitor. Cells were washed three times with serum free medium and seeded onto either FN or TG-FN matrix for 20-40 min. Peptides P1 or scrambled P1 (P1s), were added at concentrations between 100 μg/ml and 300 μg/ml. […] Attached cells were washed once with PBS, pH 7.4 and then fixed with 3.7% paraformaldehyde, further permeabilised with 0.1% (v/v) Triton® X-100 detergent in PBS, and co-stained with May-Grunwald and Giemsa stains as described previously (Jones et al., 1997). Images of stained cells from non-overlapping fields of view were photographed at 20× magnification and analyzed using the imaging analysis program Scion Image (National Institute of Health). Cell attachment and spreading were quantified, and the number of cells per image was assessed as described previously (Telci et al., 2008). Cell attachment on FN without peptide was considered as the control value for all the experiments unless stated otherwise. The mean number of attached cells form three wells was calculated and that of the control was considered as 100%. The mean number of attached cells (cell attachment) for each sample was then expressed as the percentage of cell attachment on FN. The mean percentage of attached cells that are spread (cell spreading) for each sample was determined separately, and the mean percentage of spread cells on FN control was expressed as 100%. The mean percentage of spread cells for each sample was then normalised against that of FN control Cell attachment on FN without the RGD peptide was considered as the control value for most of the experiments unless stated otherwise The mean number of attached cells from three wells was calculated and that of the control was considered as 100%. The mean number of attached cells (cell attachment) for each sample was then expressed as the percentage of cell attachment on FN. The mean percentage of attached cells that are spread (cell spreading) for each sample was determined separately, and the mean percentage of spread cells on the FN control was expressed as 100%. The mean percentage of spread cells for each sample was then normalised against that of FN control Cell pre-treatments included: PKCα inhibitor Go6976 (5 μM) or GK21 peptide (8 μM) for 1 h in serum-free medium prior to cell detachment; heparinase (15 mU/ml) or chondroitinase (15 mU/ml) to cells in suspension in serum free medium for 1 h. For the detection of the signalling molecules via Western blotting, the cell adhesion assay was performed in 60 mm Petri dishes and cells were collected into cell lysis buffer (Santa Cruz, UK) as described previously and pre-cleared by centrifugation at 300×g for 10 min. Western blotting was performed with specific anti-p-397 FAK or p-ERK1/2 antibodies. Membranes were stripped (Telci et al., 2008) and total FAK and ERK1/2 detected using anti-FAK and anti-ERK1/2 antibodies as listed in Table 2, while α-tubulin was used as an equal loading standard (Wang et al., 2011).
Cell adhesion and spreading assays were performed as described above in Example 1 method ‘Cell adhesion assay’

[2] = test system: p-397 FAK; experiment: Western blotting of p-397 FAK after cell adhesion assay; format: cell-based, human; conditions: HOB on FN, RGD, peptide 100 μg/ml
Protocol: (§1) Cell lysates containing 50 μg of protein were dissolved in 2× Laemmli buffer (Sigma-Aldrich Ltd, Dorset, UK) and separated by SDS-PAGE. Western blotting was performed using specific primary antibodies as described above. Primary antibodies were detected using the appropriate secondary antibody conjugated to horse radish peroxidase. Detection was by chemiluminescence (Amersham ECL™ Western Blotting System, GE Healthcare, UK).
(§2) The cell adhesion assay was carried out as previously described (Wang et al., 2010). […] Images of stained cells from non-overlapping fields of view were photographed at 20× magnification and analyzed using the imaging analysis program Scion Image (National Institute of Health). Cell attachment and spreading were quantified, and the number of cells per image was assessed as described previously (Telci et al., 2008). […] The mean number of attached cells form three wells was calculated and that of the control was considered as 100%. The mean number of attached cells (cell attachment) for each sample was then expressed as the percentage of cell attachment on FN. The mean percentage of attached cells that are spread (cell spreading) for each sample was determined separately, and the mean percentage of spread cells on FN control was expressed as 100%. […]

[3] = test system: p-ERK1/2; experiment: Western blotting of p-ERK1/2 after cell adhesion assay; format: cell-based, human; conditions: HOB on FN, RGD, peptide 100 μg/ml
Protocol: as §1, §2

[4] = test system: NIH 3T3 cells; experiment: Detection of TG2 at cell surface (biotinylation), in ECM and in culture medium of transfected cells; format: cell-based, mouse; conditions: transfected NIH 3T3 cells, biotinylation and Western blot, vs wild-type TG2
Protocol: Cell surface proteins were labelled by biotinylation as described previously (Wang et al., 2010). Briefly, cell monolayers were rinsed three times with ice-cold PBS pH 8.0 and labelled with 0.8 mM sulfo-NHS-LC-biotin dissolved in PBS pH 8.0 at 4° C. for 20 min. Cells were then washed with 50 mM Tris-HCl, pH 8.0 and lysed with 1% SDS at 4° C. in PBS pH8.0. Following denaturation at 95° C., cell lysates were clarified by centrifugation at 14,000×g at 20° C. and 200 μg of protein was incubated overnight at 4° C. with NEUTRAVIDIN® avidin protein-Agarose resin. After washing three times with PBS pH 8.0, the biotin-labelled proteins were dissolved in 2× Laemmli buffer separated by SDS-PAGE and subjected to Western blotting.
Following transfection, cells were incubated for 24 h with 10% (v/v) serum, which was replaced with 1% (v/v) serum and TG2 expression was allowed to proceed for a further 48 h. Proteins from 1 ml of medium were precipitated by the addition of ice cold 20% (w/v) trichloroacetic acid (TCA) to a final concentration of 10% (w/v) Pelleted proteins were then washed once with ice cold 10% (w/v) TCA, ethanol-acetone (1:1) and acetone, and resuspended in 2× Laemmli buffer (Sigma-Aldrich, UK) and analysed by SDS-PAGE and Western blot analysis using monoclonal anti-TG2 antibody (Cub7402). The remaining cells were detached with 2 mM EDTA in PBS, pH 7.4 and the ECM was extracted with 0.1% (w/v) deoxycholate in PBS, pH 7.4. The residual deoxycholate-insoluble ECM proteins were dissolved in 2× Laemmli buffer for further analysis by SDS-PAGE and Western blotting using Cub7402.

[5] = Binding of TG2 to heparin SEPHAROSE, elution with NaCl gradient; conditions: compared with wt TG2
Protocol: HEK cells, transiently transfected with wild-type and mutant TG2 were washed twice with ice cold PBS, pH 7.4 and lysed by the addition of 150 μl of 20 mM Tris-HCl pH 7.4, 10 mM EGTA, 2 mM EDTA, 1 mM NaF and 1 mM Na3VO4. After clarification by centrifugation, lysates were mixed with 450 μl of 50 mM Tris-HCl, 1 mM EDTA, 1 mM DTT, pH 7.5 and applied to a 5 ml Heparin SEPHAROSE® column (GE Healthcare) equilibrated in 50 mM Tris-HCl, 1 mM EDTA, 1 mM DTT pH 7.5 (buffer) at a flow rate of 1 ml/min. For the analysis of GTP-bound TG2 (closed conformation), lysates were pre-incubated for 1 h at room temperature with 0.5 mM GTP in 50 mM Tris-HCl, 2 mM MgCl2, 1 mM EDTA, 1 mM DTT pH 7.5. For the analysis of inhibitor-reacted TG2 (open conformation), lysates were incubated with 0.5 mM of irreversible inhibitor R281 (Griffin et al., 2008) and 10 mM CaCl2. The column was washed with 25 ml of buffer and protein was eluted with a linear gradient of increasing NaCl concentration (0-1M) in buffer. Fractions were assayed for TG2 activity and analysed for the presence of TG2 antigen by SDS-PAGE and Western blotting using CUB7402.

[6] = HOB cells on FN, RGD peptide, tested 0.01-200 μg/ml

Molecule	effect on binding of cells to FN alone ([1]; FN matrix, 100-300 μg/ml, compared to P1s)	concentration at which compensation of RGD-induced loss of cell adhesion started [1, 6]	concentration of maximum compensation of RGD-induced loss of cell adhesion [1, 6]	compensatory effect on RGD-induced loss of cell adhesion after heparinase pre-treatment ([1]; HOB cells treated with heparinase 15 mU/ml (not chondroitinase), FN)	compensatory effect on RGD-induced loss of cell adhesion after syndecan-4 siRNA ([1]; HOB cells, syndecan-4 siRNA (around 50% reduction in protein expression))	effect on attachment and spreading of HOB cells on TG-FN in the presence of the RGD peptide [1]	phosphorylation of p-FAK397 [2]	phosphorylation of p-ERK1/2 [3]	presence on the cell surface [4]	binding to heparin SEPHAROSE (in words) [5]
NPKFLKNAGRDCSRRSS (listed as Homo sapiens) [P1]	small but significant enhancement of adhesion	5 to 10 µg/mL	50 to 100 µg/mL	abolished	comparable reduction in the compensatory effect	small, but not significant dose-dependent negative effect	paralleled by the phosphorylation of p-FAK397	paralleled by the phosphorylation of p-FAK397 and p-ERK1/2		
FNRADLKPRCGSSNKSR (Scrambled Control Peptide) [P1s, scrambled control peptide for P1, reference compound]						almost no effect	not found	not found		
B1									greater levels	bound heparin identically to TG2
